Measurements from patent publication US20260294863A1, “METHOD OF TREATING FIBROTIC-RELATED CONDITION” (YISSUM RESEARCH DEVELOPMENT COMPANY OF THE HEBREW …, priority 2023, published 2026).
“Also recorded” adds a separate entry of the source.

What was measured:
Nrf2 = Nrf2 in RAW cells activated by LPS; format: cell-based
Description: (§1) RAW 264.7 cells were seeded at a density of 1×10^5 cells per well in 48-well culture plates and grown overnight in DMEM supplemented as indicated above. The wells were washed with PBS (pH 7.4). AN1284, prepared in sterile double distilled water and Budesonide (positive control) were added to give final concentrations ranging from 1× 10^−13-1×10^−7M in medium containing 2% FCS. The cells were incubated for 2 h at 37° C. prior to stimulation with LPS, 2.5 μg/mL from Escherichia coli (Sigma-Aldrich serotype 0111: B4). Supernatants were harvested after 8 hrs for measurement of TNF-α and 24 h for IL-6. TNF-α and IL-6 protein were detected by a commercial ELISA kit (Biolegend, San Diego, CA, USA) according to the manufacturer's instructions. Each concentration of each compound was tested in two-three separate experiments in 6 wells per concentration.
(§2) RAW 264.7 cells were lysed in 0.1 ml of buffer containing 150 mM Tris-Cl (pH 6.8), 10% Glycerol, 0.6% SDS, Bromophenol Blue and 100 mM β-Mercaptoethanol. Lysates were collected and heated at 95° C. for 5 min, then centrifuged for 3 min at 2,240 g. Supernatants were used for gel separation. Protein concentration of the lysates was determined by using Coomassie Brilliant Blue staining. […] Molecular changes were assessed semi-quantitatively after incubation with primary antibodies for relevant proteins.

Egr1 = Egr1 in RAW cells activated by LPS; format: cell-based
Description: as §1, §2

IL-6 = IL-6 in bronchial fluid, bleomycin-induced lung fibrosis (ELISA); format: in vivo, C57BL/6JOlaHsd mice; conditions: AN1284 2.5 mg/kg/day, bleomycin, males; 2.5 mg/kg/day
Description: (§3) The animal model of bleomycin-induced lung fibrosis is widely used to characterize the potential inhibitory effect of newly developed drugs (Distler et al. 2019). Experiments were performed in C57BL/6JOlaHsd male and female mice aged 12-13 weeks. Male mice weighed 23-27.3 g and female mice, 19.4-21.1 g. They were housed under pathogen-free conditions, up to 6 per cage, in IVC cages under a controlled temperature of 22-24° C., humidity and alternating 12-h light/dark cycles and provided with food and water ad libitum. In order to minimize the stress of daily injection, ladostigil (5 mg/Kg/day) was administered by micro-osmotic pumps, implanted subcutaneously under ketamine/xylazine anesthesia, 5 days before administration of bleomycin, and delivered for 3 weeks to mice of each sex. Saline (2-3/sex) and bleomycin controls were anesthetized as described above. Bleomycin solution (0.25 mg/kg in 50 μl) was instilled into the lumen of the trachea as shown in a video by Ehrentraut et al. (2019). […] TNFα and IL-6 in the bronchial fluid lavage was measured by ELISA as described in the preceding section.
(§4) Experiments were performed in C57BL/6JOlaHsd male mice aged 12-13 weeks as described for ladostigil. […] Fibrosis was measured by staining with Sirius red as described for ladostigil. TNFα and IL-6 in the bronchial fluid lavage was measured by ELISA as described for ladostigil.

[1] = test system: LPS-activated macrophages; conditions: cited from earlier work
[2] = test system: cytotoxicity resulting from oxidative stress; conditions: cited from earlier work
[3] = test system: non-alcoholic steatohepatitis (NASH); conditions: 1 mg/kg/day, two months, micro-osmotic pumps; cited from earlier work
[4] = test system: bleomycin-induced lung fibrosis; assay: Lung fibrosis score / collagen content in bleomycin-induced lung fibrosis; format: in vivo, C57BL/6JOlaHsd mice
Description: (§5) The animal model of bleomycin-induced lung fibrosis is widely used to characterize the potential inhibitory effect of newly developed drugs (Distler et al. 2019). Experiments were performed in C57BL/6JOlaHsd male and female mice aged 12-13 weeks. Male mice weighed 23-27.3 g and female mice, 19.4-21.1 g. They were housed under pathogen-free conditions, up to 6 per cage, in IVC cages under a controlled temperature of 22-24° C., humidity and alternating 12-h light/dark cycles and provided with food and water ad libitum. In order to minimize the stress of daily injection, ladostigil (5 mg/Kg/day) was administered by micro-osmotic pumps, implanted subcutaneously under ketamine/xylazine anesthesia, 5 days before administration of bleomycin, and delivered for 3 weeks to mice of each sex. Saline (2-3/sex) and bleomycin controls were anesthetized as described above. Bleomycin solution (0.25 mg/kg in 50 μl) was instilled into the lumen of the trachea as shown in a video by Ehrentraut et al. (2019). […] Mice were weighed daily and sacrificed on day 21. Bronchial fluid was collected as described in Ehrentraut et al. (2019). TNFα and IL-6 in the bronchial fluid lavage was measured by ELISA as described in the preceding section.
Specimens taken from the left lung were embedded in paraffin and cut into 5 μm-thick slices. They were put on slides and paraffin was removed. They were rehydrated and stained with a solution of Sirius red (100 mg/100 ml of [COMPOUND LEFT OUT], rinsed in distilled water until clear, dehydrated and mounted in a resinous medium. The red stain (also called “Sirius red” stain) is one of the best understood histochemical techniques. It relies on the birefringent properties of collagen and is much more specific than the other common collagen stains, Pulmonary fibrosis was evaluated on a score of 0-4 on 15-20 different fields taken from each lung section, according to the area and intensity of fibrotic staining in the field, excluding that in blood vessels. Two independent scientists blinded to the treatment performed the analysis. For TGFβ1 staining, slides were deparaffinized and rehydrated. Antigen retrieval was performed in Tris-based buffer, pH 9.0. Endogenous peroxidase activity was quenched by incubation in 3% H2O2. The tissue was permeabilized with Triton X-100 0.1% in PBS. After blocking, sections were incubated with primary antibody: diluted rabbit recombinant monoclonal TGFβ1 antibody (Abcam ab215715) over night, at 4° C. Slices were further incubated with the secondary antibody: ImmPRESS®-HRP Goat Anti-Rabbit IgG Polymer Detection Kit, Peroxidase (Vector labs VE-MP-7451-15) at room temperature. For color development, sections were incubated in peroxidase substrate solution DAB, at room temperature until desired stain intensity developed. They were then counterstained with filtered hematoxylin and cosin, cleared and mounted.
(§6) Experiments were performed in C57BL/6JOlaHsd male mice aged 12-13 weeks as described for ladostigil. AN1284 (2.5 mg/kg/day) was administered by micro-osmotic pumps, implanted subcutaneously under ketamine/xylazine anesthesia, 5 days before administration of bleomycin and delivered for 3 weeks. Mice were weighed daily, sacrificed on day 21 and bronchial fluid was collected. Fibrosis was measured by staining with Sirius red as described for ladostigil. TNFα and IL-6 in the bronchial fluid lavage was measured by ELISA as described for ladostigil.

NLRP3 = NLRP3 in RAW cells activated by LPS; format: cell-based
Description: as §1, §2

[5] = test system: Aryl hydrocarbon receptor (AhR); conditions: 1 mg/kg/day, two months, NASH mice; cited from earlier work
TNFα [6] = assay: TNFα in bronchial fluid, bleomycin-induced lung fibrosis (ELISA); format: in vivo, C57BL/6JOlaHsd mice; conditions: AN1284 2.5 mg/kg/day, bleomycin, males; 2.5 mg/kg/day
Description: as §3, §4

[7] = Body weight in bleomycin-induced lung fibrosis; format: in vivo, C57BL/6JOlaHsd mice; conditions: AN1284 2.5 mg/kg/day, days 11 and 14 after bleomycin, males
Description: as §5, §6

Activator protein-1 = conditions: cited from earlier work
MAPK p38 = conditions: cited from earlier work
TNFα [8] = assay: Secretion of TNFα from BzATP/LPS-activated microglia (ELISA); format: cell-based, Balb/C mice; conditions: all concentrations tested, added 2 hrs before BzATP and LPS, 0.1% BSA; p<0.01
Description: (§7) Experiments were performed on primary microglial cells isolated from brains of neonatal Balb/C mice as previously described (Reichert and Rotshenker, 2003). The brains were stripped of their meninges and enzymatically dissociated. Cells were plated on Poly-L-lysine coated flasks for one week, re-plated for 1- to 2-hr on bacteriological plates and non-adherent cells were washed away. Microglia were propagated by incubation in 20% of medium, conditioned by the L-cell line that produces mouse-CSF. They were identified by morphology and positive immune-reactivity to P2y12, F4/80, complement receptor-3 and Galectin-3/MAC-2 (Reichert and Rotshenker 2003; Gitik et al. 2011).
(§8) Cytokines were measured as previously described (Shamash et al. 2002) using ELISA Max deluxe set (Biolegend, CA, USA) for secreted TNFα and IL-6 proteins and ELISA DuoSet (R&D systems, UK) for secreted and cell associated IL-1β, according to manufacturer's instructions.
(§9) The effect of ladostigil at concentrations of 1×10^−13 M to 1×10^−9 M on the secretion of cytokine proteins was assessed by adding it to microglia for 2 hr before LPS (0.75 μg/ml) and BzATP (400 μM). Other microglia were treated similarly with the steroid, budesonide as a reference standard at concentrations of 1× 10^−13 to 1× 10^−11 M. Measurements of cytokine secretion were performed 8 hrs after addition of LPS and BzATP. Since the levels of secreted IL-1β were still low, samples were concentrated 2- to 4-fold by an Amicon ultra-centrifugal filter device (Merck-Millipore, Ireland). ELISA was used to quantify the levels of cytokine proteins. Protein content in the microglia lysate was measured by Bradford and levels of cytokines were calculated and presented as pg/μg of microglial protein.

IL1β = assay: Secretion of IL1β from BzATP/LPS-activated microglia (ELISA); format: cell-based, Balb/C mice
Description: as §7, §8, §9

IL6 = assay: Secretion of IL6 from BzATP/LPS-activated microglia (ELISA); format: cell-based, Balb/C mice; conditions: all concentrations tested
Description: as §7, §8, §9

[9] = Body weight in bleomycin-induced skin sclerosis; format: in vivo, C57BL/6 mice; conditions: bleomycin, days 24-27
Description: (§10) Male C57BL/6 mice aged 8 weeks were housed under pathogen-free conditions at a controlled temperature of 22-24° C., humidity and alternating 12-h light/dark cycles and provided with food and water ad libitum. Skin sclerosis was induced as described by Ravanetti et al, (2020). A small incision was made in the skin at the back caudal to the scapulae and subcutaneous pocket was created into which an Alzet micro-osmotic pump was implanted, and the incision closed with two stiches and a surgical clip. The pumps contained bleomycin, (delivered at the rate of 60 U/kg body weight) or saline (control) and were removed 10 days after implantation. The mice were monitored daily until they recovered completely and weighed twice weekly from the beginning of the experiment.
(§11) Ladostigil (10 mg/kg/day) was administered in the drinking fluid to 10 mice, housed 2/cage, from 3 days before bleomycin pump installation until the end of the experiment. The fluid intake of the mice was measured daily. The dose of ladostigil was adjusted accordingly. Bleomycin alone, (10 mice) and saline controls (6 mice) received regular drinking fluid.

[10] = Mortality in bleomycin-induced lung fibrosis; format: in vivo, C57BL/6JOlaHsd mice; conditions: bleomycin alone
Description: as §5, with “In order to minimize the stress of daily injection, ladostigil (5 mg/Kg/day) was administered by micro-osmotic pumps, implanted subcutaneously under ketamine/xylazine anesthesia, 5 days before administration of bleomycin, and delivered for 3 weeks to mice of each sex.” left out

skin sclerosis = assay: Dermal and hypodermal thickness in bleomycin-induced skin sclerosis; format: in vivo, C57BL/6 mice; conditions: bleomycin treatment
Description: as §10, §11
Skin was harvested on the gluteal region to avoid dermal fibrosis artifact due to proximity to the site of implant. For histological assessment, the samples were dehydrated in a graded ethanol series, clarified in xylene, and paraffin embedded. They were mounted on slides and paraffin was removed. Sections of 5 μm thickness were cut with a rotary microtome and stained with hematoxylin and eosin (H&E)

Molecule: CC(C)NCCCN1CCc2ccccc21.Cl.Cl [AN1284, 3-(indolin-1-yl)-N-isopropylpropan-1-amine 2HCl]
- Nrf2 (Nrf2; LPS + AN1284 0.1 nM, LPS + vehicle 2.3): 1.6
- expression of Nrf2 (Nrf2; LPS-activated RAW cells): decreased the expression of Nrf2
- Egr1 (Egr1; LPS + AN1284 0.1 nM, LPS + vehicle 2.7): 1.3
- EGR1 (Egr1; LPS-activated macrophages): reduced ERG1 in macrophages
- IL-6 in bronchial fluid (IL-6): does not affect levels of pro-inflammatory cytokines; also recorded: did not reduce
- release of pro-inflammatory cytokines [1]: reduced the release of pro-inflammatory cytokines
- cytotoxicity resulting from oxidative stress [2]: inhibited cytotoxicity
- steatosis, lipogenesis, and fibrosis [3]: attenuated steatosis, lipogenesis, and fibrosis
- collagen levels / fibrosis score ([4]; AN1284 2.5 mg/kg/day by micro-osmotic pumps, males): reduced fibrosis score
- fibrosis (overall conclusion) ([4]; bleomycin-induced lung fibrosis murine model): shown to reduce fibrosis
- NLRP3 (NLRP3; LPS + AN1284 0.1 nM, LPS + vehicle 1.6): 1.1
- expression of NLRP3 (NLRP3; LPS-activated RAW cells): effectively reduce expression of NLRP3
- activation of AhR [5]: activation of the Aryl hydrocarbon receptor (AhR)
- TNFα in bronchial fluid (TNFα [6]): does not affect levels of pro-inflammatory cytokines; also recorded: did not reduce
- body weight loss [7]: reduced body weight loss
- nuclear translocation of Activator protein-1 (Activator protein-1): inhibiting phosphorylation of MAPK p38 and nuclear translocation of Activator protein-1
- phosphorylation of MAPK p38 (MAPK p38): inhibiting phosphorylation of MAPK p38

Molecule: CCCC1O[C@@H]2C[C@H]3[C@@H]4CCC5=CC(=O)C=C[C@]5(C)[C@H]4[C@@H](O)C[C@]3(C)[C@]2(C(=O)CO)O1 (stereo partly drawn) [budesonide, reference compound]
- reduction of TNFα release (TNFα [8]): reduced the 3 cytokines significantly
- reduction of IL1β release (IL1β; all concentrations tested, added 2 hrs before BzATP and LPS, 0.1% BSA, p<0.01): reduced the 3 cytokines significantly
- reduction of IL1β compared with reduction of TNFα (IL1β; ladostigil 1×10^−9 M, budesonide 1×10^−11 M): greater than that of TNFα
- reduction of IL6 release (IL6; added 2 hrs before BzATP and LPS, 0.1% BSA, p<0.01): reduced the 3 cytokines significantly
- reduction of IL6 compared with reduction of TNF (IL6; p<0.001): greater than those of TNF

Molecule: bleomycin [reference compound]
- weight gain compared with saline [9]: smaller increase in weight
- mortality ([10]; females, days 7 to 17 (6/38)): 16%
- mortality ([10]; males, days 16-19 (5/16)): 31%
- hypodermis thickness change caused (skin sclerosis): thinning of the hypodermis
- skin (dermal) thickness change caused (skin sclerosis): thickening
